The values that follow come from patent US20230310293A1, “COOLING SENSATION COMPOSITIONS” (GIVAUDAN SA, priority 2020, published 2023).

The structures appear in SMILES notation.

This series in a line: Solubility of non-natural cooling compounds in lactic acid. The conditions noted are these: warmed to about 50° C. with gentle agitation for 1 hour per step, highest tested weight % that dissolved. It is filed as physicochemical. The method, then:
Into a 20ml vial 0.4 g of the respective non-natural cooling compound as indicated in Table 1 below have been added followed by the addition of 1.6 g lactic acid. The vial was warmed to about 50° C. with gentle agitation for 1 hour. If the respective non-natural cooling compound hasn’t dissolved, 2 g lactic acid was added (resulting in a composition comprising 10 weight % of a non-natural cooling compound), and again gentle agitated for an additional hour at about 50° C. If the non-natural cooling compound still hasn’t dissolved, 4 g of lactic acid was added (resulting in a composition comprising 5 weight % of anon-natural cooling compound), and again gentle agitated for an additional hour at about 50° C.
If the non-natural cooling compound still has not dissolved, the procedure above has been repeated, starting with 0.05 g of the non-natural cooling compound and 0.95 g of lactic acid. If still not dissolved, 1 g lactic acid was added (resulting in a composition comprising 2.5 weight % of a non-natural cooling compound). If still not dissolved further solvent was added.
If 0.4 g the non-natural cooling compound dissolved in 1.6 g lactic acid, the procedure above has been repeated, starting with 1 g of the non-natural cooling compound and 1 g lactic acid. If the respective non-natural cooling compound hasn’t dissolved, 0.5 g lactic acid was added (resulting in a composition comprising 40 weight % of a non-natural cooling compound), and again gentle agitated for an additional hour at about 50° C. If the non-natural cooling compound still hasn’t dissolved, 0.83 g of lactic acid was added (resulting in a composition comprising 30 weight % of anon-natural cooling compound), and again gentle agitated for an additional hour at about 50° C.
Regarding `C=CC(C)(C)C(=O)N1CCCCC1c1ncc(-c2ccc(C)cc2)[nH]1` (stereo not shown) [2,2-dimethyl-1-(2-(5-(p-tolyl)-1H-imidazol-2-yl)piperidin-1-yl)but-3-en-1-one], the “Soluble solution (solubility of non-natural cooling compound in lactic acid)” value stood at 30 wt %.
Turning to `CCc1ccc(OCC(=O)N(Cc2cccs2)c2cc[nH]n2)cc1` [2-(4-ethylphenoxy)-N-(1H-pyrazol-3-yl)-N-(thiophen-2-ylmethyl)acetamide], the “Soluble solution (solubility of non-natural cooling compound in lactic acid)” value amounted to 5 wt% wt %.
As to `CSC(C)C(=O)N1CCCCC1c1ncc(-c2ccc(C)cc2)[nH]1` (stereo not shown) [2-(methylthio)-1-(2-(5-(p-tolyl)imidazol-2-yl)piperidin-1-yl)propan-1-one], the “Soluble solution (solubility of non-natural cooling compound in lactic acid)” value was found to be 50 wt %.
Turning to `CC1CCC(C(C)C)C(C(=O)NCCc2ccccn2)C1` (stereo not shown) [2-isopropyl-5-methyl-N-(2-(pyridin-2-yl)ethyl)cyclohexane-1-carboxamide], the “Soluble solution (solubility of non-natural cooling compound in lactic acid)” value was 20 wt %.
Regarding `CC1CCC(C(C)C)C(OC(=O)C(C)O)C1` (stereo not shown) [2-isopropyl-5-methylcyclohexyl 2-hydroxypropanoate], the “Soluble solution (solubility of non-natural cooling compound in lactic acid)” value was found to be 20 wt% wt %.
For the compound `CNC(=O)C(C)(C(C)C)C(C)C` [2-isopropyl-N,2,3-trimethylbutanamide], the “Soluble solution (solubility of non-natural cooling compound in lactic acid)” value stood at 20 wt% wt %.
Under `CCC(C)C(=O)N1CCCCC1c1ncc(-c2ccc(C)cc2)[nH]1` (stereo not shown) [2-methyl-1-(2-(5-(p-tolyl)-1H-imidazol-2-yl)piperidin-1-yl)butan-1-one] stands 50 wt %; under `CSC(C)(C)C(=O)N1CCCCC1c1ncc(-c2ccc(C)cc2)[nH]1` (stereo not shown) [2-methyl-2-(methylthio)-1-(2-(5-(p-tolyl)-1H-imidazol-2-yl)piperidin-1-yl)propan-1-one], 40 wt %; under `Cc1ccc(OCC(=O)N(Cc2cccs2)c2ccn[nH]2)cc1` [N-(1H-pyrazol-3-yl)-N-(thiophen-2-ylmethyl)-2-(p-tolyloxy)acetamide], 30 wt %.
Under `CC(C)C1CCC(C)(C)CC1C(=O)NCC(O)c1ccccc1` (stereo not shown) [N-(2-hydroxy-2-phenylethyl)-2-isopropyl-5,5-dimethylcyclohexane-1-carboxamide] stands 5 wt% wt %; under `CC1CCC(C(C)C)C(C(=O)Nc2ccc(CC(N)=O)cc2)C1` (stereo not shown) [N-(4-(2-amino-2-oxoethyl)phenyl)-2-isopropyl-5-methylcyclohexane-1-carboxamide], 2.5 wt% wt %; under `CCNC(=O)C1CC(C)CCC1C(C)C` (stereo not shown) [N-Ethyl-p-menthane-3-carboxamide], 10 wt% wt %.
In the case of `CCOC(=O)CNC(=O)C1CC(C)CCC1C(C)C` (stereo not shown) [ethyl (2-isopropyl-5-methylcyclohexane-1-carbonyl)glycinate] it was 20 wt% wt %.
